Laboratory results published in patent US12552833B2, “Dynamics within supramolecuar IKVAV matrices enhance functional maturation of human IPSCS-derived neurons and regeneration” (Northwestern University, priority 2019, dated 2026).
No end group written: not given here. *: point of attachment. Palmitoyl = CCCCCCCCCCCCCCCC(=O)*

Assays:
human MNs [1] = assay: Tandem mass spectrometry and gene ontology (GO) analysis of proteins differentially expressed in MNs cultured on A2G2 IKVAV PA vs. laminin coated surfaces; assay type: cell-based; conditions: A2G2 condition vs. laminin; 21 out of the 58 GO terms of Ho et al., 2016 (FIG. 31A)
Description: FIGS. 31A-31C Assessment of MN maturation through gene ontology (GO) analysis of proteins differentially expressed in MNs cultured on A2G2 IKVAV PA and laminin coated surfaces. Tandem mass spectrometry analysis uncovered differentially expressed proteins between MNs plated on […] surfaces, that are associated with GO terms that have been directly linked to human MN maturation (Ho et al., 2016). (FIG. 31A) From the differentially expressed proteins in A2G2 condition, 21 out of the 58 (36%) GO terms associated with maturation of human MNs were identified. […] Horizontal bar plots display the p-values of the MN maturation related GO terms identified in the protein data set. Pie charts represent the percentage of GO terms obtained in this study compared to the previously described GO terms associated with MN maturation (Ho et al., 2016).
Motor neurons (MN) differentiation: At 70% confluency, iPSC cultures were dissociated using Accutase and plated at a density of 10^5 cells/cm^2 with 10 μM ROCK inhibitor (Y-27632, DNSK International) in mTeSR1. Next day (day 0), media was replaced with N2B27 medium (50% DMEM:F12, 50% Neurobasal, supplemented with NEAA, Glutamax, N2 and B27; Gibco, Life Technologies) containing 10 μM SB431542 (DNSK International), 100 nM LDN-193189 (DNSK International), 1 μM Retinoic Acid (RA, Sigma) and 1 μM of Smoothened-Agonist (SAG, DNSK International). […]

human MNs [2] = assay: Patch-electrode recording of action potentials from human MNs grown on A2G2 and laminin matrices; assay type: cell-based; conditions: MNs grown on A2G2 compared with laminin matrices, day 48-49 (FIG. 4L)
Protocol: Motor neurons (MN) differentiation: At 70% confluency, iPSC cultures were dissociated using Accutase and plated at a density of 10^5 cells/cm^2 with 10 μM ROCK inhibitor (Y-27632, DNSK International) in mTeSR1. Next day (day 0), media was replaced with N2B27 medium (50% DMEM:F12, 50% Neurobasal, supplemented with NEAA, Glutamax, N2 and B27; Gibco, Life Technologies) containing 10 μM SB431542 (DNSK International), 100 nM LDN-193189 (DNSK International), 1 μM Retinoic Acid (RA, Sigma) and 1 μM of Smoothened-Agonist (SAG, DNSK International). Culture medium was daily changed until day 6, then was switched to N2B27 medium supplemented with 1 μM RA, 1 μM SAG, 5 μM DAPT (DNSK International) and 4 μM SU5402 (DNSK International). Cells were fed daily until day 14, when MNs were dissociated using TrypLE Express (Gibco, Life Technologies) supplemented with DNase I (Worthington) and plated onto pre-coated poly-D-Lysine/laminin or the distinct IKVAV-coated surfaces. MNs were feed 3 times a week with neurobasal medium (NBM: NEAA, Glutamax, N2 and B27) supplemented with Ascorbic acid (0.2 μg/ml; Sigma-Aldrich), BDNF, CNTF and GDNF (10 ng/mL, R&D systems) and 1% fetal bovine serum (FBS).

In the case of “C16A2G2E4GIKVAV (Palmitoyl-AAGGEEEEGIKVAV) [IKVAV peptide amphiphile with A2G2 structural segment]”, the “GO terms associated with maturation of human MNs identified from the differentially expressed proteins” value (human MNs [1]) is reported as 36%, the action potential amplitude (human MNs [2]) is reported as “significantly larger amplitude” and the “action potential rates of rise and fall” value (human MNs [2]) is reported as “faster rates of rise and fall”.
